Source: patent publication EP3459551A1, “USE OF ARSENIC TRIOXIDE IN THE PREVENTION OR TREATMENT OF DISEASES ASSOCIATED WITH TYPE I […] ACTIVATION” (Medsenic, priority 2017, dated 2019)

Tests used:
human pDCs = assay: Viability of human pDCs (Fixable Viability Dye, flow cytometry); type: cell-based; conditions: 24h of culture
Experimental: (§1) pDCs were isolated from fresh peripheral blood mononuclear cells (PBMCs) by magnetic selection. Cell viability, phenotype and intracellular cytokine analyses were performed with flow cytometry. ELISA was used to analyze the cytokine concentration in supernatants.
First, the effect of ATO on the viability of human pDCs was investigated. […] (% of living pDCs: 56.36±6.44% with 0µM vs 32.02±7.12% with 1µM of ATO, p=0.039)

naïve CD4+ T cells = assay: pDC capacity to polarize naïve CD4+ T cells (intracellular staining and ELISA of MLR supernatants); type: cell-based, human; conditions: pDCs previously treated with ATO
Experimental: as §1
In addition, the effect of ATO treatment on pDC capacity to polarize naïve CD4+ T cells was assessed.

[1] = system: pDCs after TLR9 activation; assay: Cytokine and chemokine secretion by pDCs after TLR9 activation (ELISA of supernatants); type: cell-based, human; conditions: 0.5µM of ATO, 24h, n=4
Experimental: as §1
Then, the effect of low dose ATO (corresponding to a non-lethal, therapeutic dose) on cytokine and chemokine secretion by pDCs after TLR9 activation was studied. ELISA test of supernatants of sorted pDCs cultured with ATO for 24h were studied (n=4).

activated pDCs = assay: Phenotype of activated pDCs (flow cytometry of maturation markers); type: cell-based, human
Experimental: as §1
Given the above results, it was addressed whether activated pDCs phenotype could be similarly impacted by ATO treatment.

[2] = system: CD4+ naïve T cells co-cultured with ATO-treated activated pDCs; assay: Mixed lymphocyte reaction (MLR) of pDCs and CD4+ naïve T cells: T cell proliferation; type: cell-based, human; conditions: pDCs treated with 0.5µM of ATO, n=4; 0µM control 44.97±2.53%
Experimental: as §1
In order to evaluate whether ATO can influence the capability of pDCs to activate T cells, mixed lymphocyte reaction (MLR) of pDCs and CD4+ naïve T cells were performed.

[3] = 24h culture with non-lethal doses of ATO

Question: Which results are given for arsenic trioxide [ATO]?
Answer: % of living pDCs (human pDCs; 1µM of ATO, 0µM control 56.36±6.44%, p=0.039): 32.02±7.12%; ATO concentration that significantly decreased viability of both non-activated and activated pDCs (human pDCs): ≥ 1 µM; IL-10 concentration in the supernatants of MLR (naïve CD4+ T cells; ELISA): no change; IL-17, IL-22 concentrations in the supernatants of MLR (naïve CD4+ T cells; ELISA): significant decrease; IL-22 positive cells in T cells (naïve CD4+ T cells; intracellular staining, untreated 11.67%): 7.22%; IFN-γ positive cells in T cells (naïve CD4+ T cells; intracellular staining, untreated 41.13%): 29.09%; TNF-α positive cells in T cells (naïve CD4+ T cells; intracellular staining, untreated 47.10%): 35.40%; IL-6 secretion ([1]; 0µM control 2.31 ±0.39ng/ml, p=0.029): 1.66 ± 0.32 ng/mL; TNF-α secretion ([1]; 0µM control 6.23±0.92ng/ml, p=0.005): 3.99 ± 0.79 ng/mL; CXCL10 secretion ([1]; 0µM control 13.06±0.98ng/ml, p=0.036): 9.44 ± 0.97 ng/mL; IFN-α secretion ([1]; 0µM control 53.24±6.61ng/ml, p=0.004): 25.81 ± 7.70 ng/mL; PD-L1+ pDCs (activated pDCs; 0.5µM of ATO, 24h, n=4, 0µM control 61.44±2.37%, p=0.005): 73.27 ±3.72%; % of CD86+ and CCR7+ pDCs (activated pDCs; [3]): significant decrease; relative fluorescence intensity (RFI) of CD80, CD86, and HLA-DR expressions (activated pDCs; [3]): significant decrease; RFI for PD-L1 expression (activated pDCs; 24h culture with non-lethal doses of ATO, p=0.09): increase; % of proliferating T cells [2]: 37.98±2.11%
